{"source": "patent US7713934B2", "about": "“Thrombin peptide derivatives” (The Board of Regents, The University of Texas System, priority 2002, dated 2010)", "key": {"[1]": {"test_system": "full-thickness, 2 cm-diameter excisions on the dorsum", "assay": "Wound closure, full-thickness excisions in rats (Example 2, TP508-Ser)", "type": "in vivo, male Sprague-Dawley rats", "conditions": "for wound area reduced: 0.1 μg per wound, topical; for wound healing activity compared with TP508: Example 2, 0.1 μg per wound", "method": "(§1) Two, full-thickness, 2 cm-diameter excisions were created on the dorsum of male Sprague-Dawley rats. […] Wound size was determined on post-wounding days 3, 7, and 10 by tracing the perimeter of the wound onto an acetate sheet and using digital analysis to compute the surface area of each wound.\nEach group contained 8 rats.\n(§2) Saline was used as the vehicle for the experiment. […] The working solution was maintained on ice throughout the experiment.\n(§3) The working solution was maintained on ice throughout the experiment.\n(§4) On post-wounding days 3, 7, and 10, the wounds were evaluated by tracing the wound perimeter onto a flexible acetate sheet, then determining wound area with digital analysis software.\nEach data point represents the mean and standard error of the mean of 16 wounds from 8 rats. Statistical comparisons between groups were made using a repeated measures analysis of variance; Fisher's LSD was used for post hoc testing between groups."}, "[2]": {"test_system": "thrombin receptors", "assay": "Peptide competition for [125I]-alpha-thrombin binding to ME cells", "conditions": "for Concentration Required for 30% Inhibition: [125I]-alpha-thrombin binding to ME cells; for fold higher concentration than p508-530 required for 30% inhibition of [125I]-alpha-thrombin binding: relative to p508-530", "text": "Thrombin peptide derivatives are believed to activate cells by binding to a high-affinity cell-surface thrombin receptor known as the non-proteolytically-activated thrombin receptor (hereinafter “NPAR”) (R. Horvat, et. al., J. Cell Sci. 108, 1155-1164 1995). Compounds which stimulate NPAR are said to be thrombin receptor agonists. NPAR activation can be assayed based on the ability of molecules to stimulate cell proliferation when added to fibroblasts in the presence of submitogenic concentrations of thrombin or molecules that activate protein kinase C or compete with ^125I-thrombin for high affinity binding17 to thrombin receptors, as disclosed in U.S. Pat. Nos. 5,352,664 and 5,500,412 and in Glenn et al., J. Peptide Research 1:65 (1988).\nTo further identify regions of thrombin involved in high-affinity binding and generation of mitogenic signals, two peptides representing specific domains within p508-530 were tested. The first peptide represented residues 519 to 530 of the B-chain region of human prothrombin, a region of thrombin that is highly conserved among serine proteases. The second peptide represented residues 517 to 520 of prothrombin, a region of thrombin homologous to the fibronectin cell binding domain.\nBecause p517-520 is homologous to the fibronectin cell binding domain, a peptide having the sequence Arg-Gly-[…]-Ser (SEQ ID NO:18; the sequence of the fibronectin specific peptide) was also tested for its ability to compete for [^125I]-alpha-thrombin binding."}, "[3]": {"test_system": "NIL cells", "conditions": "increasing concentrations, quiescent NIL cells, 2 and 4 nM alpha-thrombin; FIG. 6 of U.S. Pat. No. 5,500,412; cited from earlier work"}, "[4]": {"test_system": "full-thickness, 2 cm-diameter excisions on the dorsum", "assay": "Wound closure, full-thickness excisions in rats (Example 1, TP508-Ala)", "type": "in vivo, male Sprague-Dawley rats", "conditions": "for wound area smaller than controls: 0.1 μg per wound, topical; for wound healing activity compared with TP508: Example 1, 0.1 μg per wound", "method": "as §1\nEach group contained 6 rats.\nas §2, §3, §4\nEach data point represents the mean and standard error of the mean of 12 wounds from 6 rats. Statistical comparisons between groups were made using a repeated measures analysis of variance; Fisher's LSD was used for post hoc testing between groups."}, "[5]": {"assay": "Dimer formation / stability in saline solution by HPLC", "type": "physicochemical", "conditions": "5 mg/mL, 4° C.", "text": "Over a time period of 6 months, triplicate samples were taken at intervals from the solution.\nThe area percent of each HPLC peak was plotted in FIG. 3. The peak area percent corresponds directly to the percent of material in solution.\nOver a time period of 1 month, triplicate samples were taken at intervals from the solution. […] The area percent of each HPLC peak was plotted in FIG. 4. The peak area percent corresponds directly to the percent of material in solution.\nOver a time period of 1 month, triplicate samples were taken at intervals from the solution. […] The area percent of each HPLC peak was plotted in FIG. 5. The peak area percent corresponds directly to the percent of material in solution."}}}
{"substance": "H-Ala-Gly-Tyr-Lys-Pro-Asp-Glu-Gly -Lys-Arg-Gly-Asp-Ala-Ser-Glu-Gly-Asp-Ser-Gly-Gly-Pro-Phe-Val-NH2 (H-AGYKPDEGKRGDASEGDSGGPFV-NH2) [TP508-Ser]", "values": [{"measurement": "wound area reduced", "setting": "[1]; post-wounding Day 7", "value": 18.2, "unit": "%"}, {"measurement": "wound area reduced", "setting": "[1]; post-wounding Day 10", "value": 43.3, "unit": "%"}, {"measurement": "wound healing activity compared with TP508", "setting": "[1]", "value": "equivalent to TP508 in efficacy and potency"}, {"measurement": "wound healing activity compared with TP508", "setting": "[1]; listed as TP508 Cys→Ser", "value": "about the same level of activity toward the thrombin receptor as TP508"}]}
{"substance": "DACEGDSGGPFV (Thrombin Peptide Derivative) [p519-530]", "values": [{"measurement": "Concentration Required for 30% Inhibition", "setting": "[2]", "value": 200, "unit": "nM"}, {"measurement": "Maximal % Inhibition", "setting": "[2]; at 800 nM, ME cells", "value": 51, "unit": "%"}, {"measurement": "fold higher concentration than p508-530 required for 30% inhibition of [125I]-alpha-thrombin binding", "setting": "[2]", "value": 33, "unit": "fold"}, {"measurement": "effect on DNA synthesis", "setting": "[3]", "value": "enhanced DNA synthesis"}]}
{"substance": "H-Ala-Gly-Tyr-Lys-Pro-Asp-Glu-Gly-Lys-Arg -Gly-Asp-Ala-Ala-Glu-Gly-Asp-Ser-Gly-Gly-Pro-Phe-Val-NH2 (H-AGYKPDEGKRGDAAEGDSGGPFV-NH2) [TP508-Ala]", "values": [{"measurement": "wound area smaller than controls", "setting": "[4]; post-wounding Day 7", "value": 18.7, "unit": "%"}, {"measurement": "wound area smaller than controls", "setting": "[4]; post-wounding Day 10", "value": 25.1, "unit": "%"}, {"measurement": "wound healing activity compared with TP508", "setting": "[4]", "value": "equivalent to TP508 in efficacy and potency"}, {"measurement": "wound healing activity compared with TP508", "setting": "[4]; listed as TP508 Cys→Ala", "value": "about the same level of activity toward the thrombin receptor as TP508"}, {"measurement": "HPLC peak area of monomer / peptide over time", "setting": "[5]; 1 month", "value": "no decrease over time"}, {"measurement": "conversion to dimer", "setting": "[5]; 1 month", "value": "does not convert to dimer"}, {"measurement": "conversion to dimer", "setting": "[5]; 6 months", "value": "no dimerization"}]}
{"substance": "RGDA (Thrombin Peptide) [p517-520]", "values": [{"measurement": "Concentration Required for 30% Inhibition", "setting": "[2]", "value": 300, "unit": "nM"}, {"measurement": "fold higher concentration than p508-530 required for 30% inhibition of [125I]-alpha-thrombin binding", "setting": "[2]", "value": 50, "unit": "fold"}, {"measurement": "effect on DNA synthesis", "setting": "[3]", "value": "inhibited DNA synthesis"}]}
{"substance": "Arg-Gly-Ala-Ser (RGAS; Fibronectin Specific Peptide)", "values": [{"measurement": "competition with [125I]-alpha-thrombin for binding", "setting": "[2]; at a concentration of 1.3 μM", "value": "did not compete"}]}
